How the values were obtained:
[1] = test system: HeLa; assay: Cytotoxicity against human HeLa cells by MTT assay; type: functional, cell-based
[2] = test system: HCT-116; assay: Cytotoxicity against human HCT116 cells by MTT assay; type: functional, cell-based
[3] = test system: HEK293; assay: Cytotoxicity against HEK293 cells by MTT assay; type: cell-based; conditions: Homo sapiens
[4] = test system: P388; assay: Cytotoxicity against mouse P388 cells by SRB assay; type: functional, cell-based
[5] = Cytotoxicity against human Bel7402 cells by MTT assay; type: functional, cell-based; conditions: Bel-7402

Measured: IC50

C/C=C/C=C/C(=O)C1=C(N)[C@](C)(O)[C@]2(O)O[C@]3(C)C(O)=C(C)C(=O)/C(=C(O)/C=C/C=C/C)[C@@H]3[C@]2(C)C1=O
> 10 µM: all assays above

C/C=C/C=C/C(O)=C1\C(=O)[C@]2(C)C(=O)C(C)(O)[C@H]1[C@H](C(=O)C1=C(N)[C@](C)(O)[C@]3(O)O[C@]4(C)C(O)=C(C)C(=O)\C(=C(O)/C=C/C=C/C)[C@@H]4[C@]3(C)C1=O)[C@H]2/C=C/C (stereo not given in full)
> 10 µM: all assays above

C/C=C/C=C/C(=O)C1=C(O)[C@]2(C)C(=O)[C@@](C)(O)[C@H]1N1CCC[C@@H]12
> 10 µM: all assays above

C/C=C/C=C/C(O)=C1/C(=O)C(C)=C(O)[C@@]2(C)O[C@@]3(O)[C@@](C)(O)C4=C(C(=O)C[C@@H](/C=C/C)N4)C(=O)[C@@]3(C)[C@@H]12
> 10 µM: all assays above

C/C=C/C=C/C(O)=C1/C(=O)C(C)=C(O)[C@@]2(C)O[C@@]3(O)[C@@](C)(O)C4=C(C(=O)C[C@H](/C=C/C)N4)C(=O)[C@@]3(C)[C@@H]12
> 10 µM: all assays above
